Measured values from PubChem BioAssay AID256 (DTP/NCI, 2004).
Several values for one entry are separate records, joined by “and”; a condition that tells them apart may be missing. Identical values can stand only once. Inconclusive results and toxic doses are left out.

System: CD2F1 mice, L1210 leukemia ip, survival T/C
Experiment: NCI In Vivo Anticancer Drug Screen. Data for tumor model L1210 Leukemia (intraperitoneal) in CD2F1 (CDF1) mice
Conditions: higher = longer survival
Summary of the method: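 Transplantable tumor in mice; compound-treated vs vehicle-treated groups. Read-out = treated/control ratio of the measured endpoint.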

[1] = endpoint: mean survival time, dose: 100.0 mg/kg/injection, schedule: Q04DX003 (ip), vehicle: saline with Tween-80
[2] = endpoint: mean survival time, dose: 200.0 mg/kg/injection, schedule: Q04DX003 (ip), vehicle: saline with Tween-80
[3] = endpoint: mean survival time, dose: 400.0 mg/kg/injection, schedule: Q04DX003 (ip), vehicle: saline with Tween-80
[4] = endpoint: mean survival time, dose: 25.0 mg/kg/injection, schedule: Q01DX009 (ip), vehicle: saline with Tween-80
[5] = endpoint: mean survival time, dose: 50.0 mg/kg/injection, schedule: Q01DX009 (ip), vehicle: saline with Tween-80
[6] = endpoint: mean survival time, dose: 100.0 mg/kg/injection, schedule: Q01DX009 (ip), vehicle: saline with Tween-80
[7] = endpoint: mean survival time, dose: 6.25 mg/kg/injection, schedule: Q01DX009 (ip), vehicle: saline with Tween-80
[8] = endpoint: mean survival time, dose: 12.5 mg/kg/injection, schedule: Q01DX009 (ip), vehicle: saline with Tween-80

With O=C(CCCl)c1ccccc1 the T/C (endpoint: mean survival time, dose: 25.0 mg/kg/injection, schedule: Q01DX009 (ip), vehicle: other) was 104 % of control, the T/C (endpoint: mean survival time, dose: 50.0 mg/kg/injection, schedule: Q01DX009 (ip), vehicle: other) was 100 % of control and the T/C (endpoint: mean survival time, dose: 100.0 mg/kg/injection, schedule: Q01DX009 (ip), vehicle: other) was 92 % of control and 96 % of control.

For CC(C)(CC(=O)O)Cc1ccc([N+](=O)[O-])cc1, the T/C [1] was 102 % of control, the T/C [2] was 98 % of control and the T/C [3] was 102 % of control.

With CN=C1N[N+]2=CCCCC2S1 (centres undefined) the T/C (endpoint: mean survival time, dose: 25.0 mg/kg/injection, schedule: Q04DX003 (ip), vehicle: saline) was 94 % of control and the T/C (endpoint: mean survival time, dose: 50.0 mg/kg/injection, schedule: Q04DX003 (ip), vehicle: saline) was 94 % of control.

With [Cl][Pt+2][Cl].[NH-]Cc1cccc(F)c1.[NH-]Cc1cccc(F)c1 the T/C (endpoint: mean survival time, dose: 12.5 mg/kg/injection, schedule: Q04DX003 (ip), vehicle: distilled water + Tween-80) was 95 % of control, the T/C (endpoint: mean survival time, dose: 25.0 mg/kg/injection, schedule: Q04DX003 (ip), vehicle: distilled water + Tween-80) was 95 % of control and the T/C (endpoint: mean survival time, dose: 50.0 mg/kg/injection, schedule: Q04DX003 (ip), vehicle: distilled water + Tween-80) was 95 % of control. The T/C (endpoint: mean survival time, dose: 100.0 mg/kg/injection, schedule: Q04DX003 (ip), vehicle: distilled water + Tween-80) was 100 % of control and the T/C (endpoint: mean survival time, dose: 200.0 mg/kg/injection, schedule: Q04DX003 (ip), vehicle: distilled water + Tween-80) was 100 % of control.

C/C(=N\NC(N)=S)c1c(O)cc(C)[nH]c1=O was tested, and the T/C (endpoint: mean survival time, dose: 100.0 mg/kg/injection, schedule: Q01DX001 (ip), vehicle: saline) was 97 % of control, the T/C (endpoint: mean survival time, dose: 200.0 mg/kg/injection, schedule: Q01DX001 (ip), vehicle: saline) was 101 % of control and the T/C (endpoint: mean survival time, dose: 400.0 mg/kg/injection, schedule: Q01DX001 (ip), vehicle: saline) was 98 % of control.

For Cc1ccc(S(=O)(=O)OC2CCCCC2c2ccc(C(F)(F)F)cc2)cc1 (centres undefined), the T/C (endpoint: mean survival time, dose: 75.0 mg/kg/injection, schedule: Q01DX001 (ip), vehicle: other) was 96 % of control, the T/C (endpoint: mean survival time, dose: 150.0 mg/kg/injection, schedule: Q01DX001 (ip), vehicle: other) was 88 % of control and the T/C (endpoint: mean survival time, dose: 300.0 mg/kg/injection, schedule: Q01DX001 (ip), vehicle: other) was 88 % of control.

CC(NNC(=S)N(C)C1CCCCC1)c1cc2ccccc2cn1 (centres undefined) was tested, and the T/C (endpoint: median survival time, dose: 12.5 mg/kg/injection, schedule: Q01DX005 (ip), vehicle: saline with Tween-80) was 103 % of control, the T/C (endpoint: median survival time, dose: 12.5 mg/kg/injection, schedule: Q01DX005 (ip), vehicle: saline) was 97 % of control and the T/C (endpoint: median survival time, dose: 25.0 mg/kg/injection, schedule: Q01DX005 (ip), vehicle: saline with Tween-80) was 120 % of control. The T/C (endpoint: median survival time, dose: 25.0 mg/kg/injection, schedule: Q01DX005 (ip), vehicle: saline) was 102 % of control and 109 % of control, the T/C (endpoint: median survival time, dose: 50.0 mg/kg/injection, schedule: Q01DX005 (ip), vehicle: saline with Tween-80) was 90 % of control and the T/C (endpoint: median survival time, dose: 50.0 mg/kg/injection, schedule: Q01DX005 (ip), vehicle: saline) was 113 % of control and 114 % of control.

N=C(N)CCCCCCCCC(=N)N was tested, and the T/C (endpoint: mean survival time, dose: 0.78 mg/kg/injection, schedule: Q01DX009 (ip), vehicle: saline) was 162 % of control, the T/C (endpoint: mean survival time, dose: 1.56 mg/kg/injection, schedule: Q01DX009 (ip), vehicle: saline) was 96 % of control and the T/C (endpoint: mean survival time, dose: 3.12 mg/kg/injection, schedule: Q01DX009 (ip), vehicle: saline) was 104 % of control. The T/C (endpoint: mean survival time, dose: 6.25 mg/kg/injection, schedule: Q01DX009 (ip), vehicle: saline) was 106 % of control and the T/C (endpoint: mean survival time, dose: 12.5 mg/kg/injection, schedule: Q01DX009 (ip), vehicle: saline) was 115 % of control.

With CCOC(=O)CCC(C)(C#N)c1ccccc1 (centres undefined) the T/C [4] was 96 % of control, the T/C [5] was 93 % of control and the T/C [6] was 98 % of control.

For CC#CC#CC(=O)c1ccccc1, the T/C (endpoint: mean survival time, dose: 5.0 mg/kg/injection, schedule: Q01DX001 (ip), vehicle: saline) was 97 % of control and the T/C (endpoint: mean survival time, dose: 10.0 mg/kg/injection, schedule: Q01DX001 (ip), vehicle: saline) was 100 % of control.

C[CH2][Ge]([CH2]C)[CH2]C.C[CH2][Ge]([CH2]C)[CH2]C.C[CH2][Ge]([CH2]C)[O][Ge]([CH2]C)[CH2]C was tested, and the T/C [7] was 97 % of control and 106 % of control, the T/C [8] was 96 % of control and 104 % of control and the T/C [4] was 97 % of control and 112 % of control. For the same compound, the T/C [5] was 104 % of control and 112 % of control and the T/C [6] was 109 % of control.

With O.O.O=S(=O)(O)O.[Co+3].[NH2-].[NH2-].[NH2-].[NH2-] the T/C (endpoint: mean survival time, dose: 100.0 mg/kg/injection, schedule: Q04DX002 (ip), vehicle: saline) was 108 % of control.

In the case of CC1(C)C=CC(C)(C)c2c(NS(=O)(=O)c3ccccc3)ccc(NS(=O)(=O)c3ccccc3)c21, the T/C [1] is reported as 98 % of control and the T/C [3] is reported as 96 % of control.

In the case of CN(C)N=Nc1ccc([N+](=O)[O-])cc1, the T/C (endpoint: mean survival time, dose: 50.0 mg/kg/injection, schedule: Q01DX009 (ip), vehicle: Klucel (hydroxypropylcellulose) (HPC)) is reported as 98 % of control, the T/C (endpoint: mean survival time, dose: 79.0 mg/kg/injection, schedule: Q01DX009 (ip), vehicle: Klucel (hydroxypropylcellulose) (HPC)) is reported as 102 % of control and the T/C (endpoint: mean survival time, dose: 100.0 mg/kg/injection, schedule: Q01DX009 (ip), vehicle: Klucel (hydroxypropylcellulose) (HPC)) is reported as 102 % of control. For the same compound, the T/C (endpoint: mean survival time, dose: 118.0 mg/kg/injection, schedule: Q01DX009 (ip), vehicle: Klucel (hydroxypropylcellulose) (HPC)) was 108 % of control, the T/C (endpoint: mean survival time, dose: 177.0 mg/kg/injection, schedule: Q01DX009 (ip), vehicle: Klucel (hydroxypropylcellulose) (HPC)) was 120 % of control and the T/C (endpoint: mean survival time, dose: 200.0 mg/kg/injection, schedule: Q01DX009 (ip), vehicle: Klucel (hydroxypropylcellulose) (HPC)) was 108 % of control.

With C(#Cc1ccccc1)C[P+](c1ccccc1)(c1ccccc1)c1ccccc1 the T/C (endpoint: mean survival time, dose: 1.25 mg/kg/injection, schedule: Q01DX009 (ip), vehicle: saline with Tween-80) was 95 % of control, the T/C (endpoint: mean survival time, dose: 2.5 mg/kg/injection, schedule: Q01DX009 (ip), vehicle: saline with Tween-80) was 101 % of control and the T/C (endpoint: mean survival time, dose: 5.0 mg/kg/injection, schedule: Q01DX001 (ip), vehicle: saline with Tween-80) was 102 % of control. The T/C (endpoint: mean survival time, dose: 5.0 mg/kg/injection, schedule: Q01DX009 (ip), vehicle: saline with Tween-80) was 93 % of control and 103 % of control, the T/C (endpoint: mean survival time, dose: 10.0 mg/kg/injection, schedule: Q01DX001 (ip), vehicle: saline with Tween-80) was 106 % of control and the T/C (endpoint: mean survival time, dose: 20.0 mg/kg/injection, schedule: Q01DX001 (ip), vehicle: saline with Tween-80) was 104 % of control.

With COC(=O)c1ccc(N2C(=O)C=CC2=O)cc1 the T/C (endpoint: mean survival time, dose: 1.5 mg/kg/injection, schedule: Q01DX009 (ip), vehicle: saline with Tween-80) was 108 % of control and the T/C (endpoint: mean survival time, dose: 3.0 mg/kg/injection, schedule: Q01DX009 (ip), vehicle: saline with Tween-80) was 108 % of control.

In the case of COc1ccc(CC2c3cc(OC)c(OC)cc3CCN2C(C)=O)cc1 (centres undefined), the T/C [1] is reported as 101 % of control, the T/C [2] is reported as 100 % of control and the T/C [3] is reported as 100 % of control.

O=C(NCCCl)NCCCl was tested, and the T/C (endpoint: median survival time, dose: 267.0 mg/kg/injection, schedule: Q07DX003 (ip), vehicle: saline) was 103 % of control, the T/C (endpoint: median survival time, dose: 400.0 mg/kg/injection, schedule: Q07DX003 (ip), vehicle: saline) was 97 % of control and the T/C (endpoint: median survival time, dose: 600.0 mg/kg/injection, schedule: Q07DX003 (ip), vehicle: saline) was 94 % of control. For the same compound, the T/C (endpoint: median survival time, dose: 800.0 mg/kg/injection, schedule: Q07DX003 (ip), vehicle: saline) was 99 % of control and 100 % of control.

In the case of CCCCC(/C=N/N=C/C(CC)CCCC)CC (centres undefined), the T/C (endpoint: mean survival time, dose: 6.25 mg/kg/injection, schedule: Q01DX005 (ip), vehicle: saline with Tween-80) is reported as 92 % of control, the T/C [7] is reported as 91 % of control and the T/C (endpoint: mean survival time, dose: 6.25 mg/kg/injection, schedule: Q04DX002 (ip), vehicle: saline) is reported as 98 % of control. For the same compound, the T/C (endpoint: mean survival time, dose: 12.5 mg/kg/injection, schedule: Q01DX005 (ip), vehicle: saline with Tween-80) was 92 % of control, the T/C [8] was 91 % of control and the T/C (endpoint: mean survival time, dose: 12.5 mg/kg/injection, schedule: Q04DX002 (ip), vehicle: saline) was 103 % of control. The T/C (endpoint: mean survival time, dose: 25.0 mg/kg/injection, schedule: Q01DX005 (ip), vehicle: saline with Tween-80) was 89 % of control, the T/C [4] was 95 % of control and the T/C (endpoint: mean survival time, dose: 25.0 mg/kg/injection, schedule: Q04DX002 (ip), vehicle: saline) was 103 % of control. The T/C (endpoint: mean survival time, dose: 50.0 mg/kg/injection, schedule: Q01DX005 (ip), vehicle: saline with Tween-80) was 92 % of control, the T/C [5] was 91 % of control and the T/C (endpoint: mean survival time, dose: 50.0 mg/kg/injection, schedule: Q04DX002 (ip), vehicle: saline with Tween-80) was 95 % of control. The T/C (endpoint: mean survival time, dose: 50.0 mg/kg/injection, schedule: Q04DX002 (ip), vehicle: saline) was 106 % of control and the T/C (endpoint: mean survival time, dose: 200.0 mg/kg/injection, schedule: Q04DX002 (ip), vehicle: saline with Tween-80) was 88 % of control.

C/C=C1/C(=O)Oc2ccccc21 was tested, and the T/C [5] was 101 % of control, the T/C [6] was 101 % of control and the T/C (endpoint: mean survival time, dose: 200.0 mg/kg/injection, schedule: Q01DX009 (ip), vehicle: saline with Tween-80) was 106 % of control.

With Cc1ccc(-c2nc(SCc3ccccc3)[nH]c(=O)c2CCO)cc1 the T/C (endpoint: mean survival time, dose: 100.0 mg/kg/injection, schedule: Q04DX003 (ip), vehicle: Klucel (hydroxypropylcellulose) (HPC)) was 93 % of control, the T/C (endpoint: mean survival time, dose: 200.0 mg/kg/injection, schedule: Q04DX003 (ip), vehicle: Klucel (hydroxypropylcellulose) (HPC)) was 96 % of control and the T/C (endpoint: mean survival time, dose: 400.0 mg/kg/injection, schedule: Q04DX003 (ip), vehicle: Klucel (hydroxypropylcellulose) (HPC)) was 91 % of control.
